# Reference: patent publication US20240245677A1, “SELECTED COMPOUNDS FOR TARGETED DEGRADATION OF BRD9” (C4 THERAPEUTICS, INC., priority 2021, published 2024)
# Legend:
# [1] = target: T1, IKZF1 (Homo sapiens, UniProt Q13422+Q96SW2); assay: IKZF1 HiBiT degradation assay in NCIH929.11 cells; assay type: cell-based
# T1 construct: CRISPR-edited to endogenously express HiBiT tagged IKZF1; host or cells: NCIH929.11
# [2] = target: T2, SALL4 (Homo sapiens, UniProt Q96SW2+Q9UJQ4); assay: SALL4 HiBiT degradation assay in KELLY.2 cells; assay type: cell-based; settings: read-out: Mean Emax (%) ± SD
# T2 construct: CRISPR-edited to endogenously express HiBiT tagged SALL4; host or cells: KELLY.2
# T2 sequence (Q9UJQ4 whole entry): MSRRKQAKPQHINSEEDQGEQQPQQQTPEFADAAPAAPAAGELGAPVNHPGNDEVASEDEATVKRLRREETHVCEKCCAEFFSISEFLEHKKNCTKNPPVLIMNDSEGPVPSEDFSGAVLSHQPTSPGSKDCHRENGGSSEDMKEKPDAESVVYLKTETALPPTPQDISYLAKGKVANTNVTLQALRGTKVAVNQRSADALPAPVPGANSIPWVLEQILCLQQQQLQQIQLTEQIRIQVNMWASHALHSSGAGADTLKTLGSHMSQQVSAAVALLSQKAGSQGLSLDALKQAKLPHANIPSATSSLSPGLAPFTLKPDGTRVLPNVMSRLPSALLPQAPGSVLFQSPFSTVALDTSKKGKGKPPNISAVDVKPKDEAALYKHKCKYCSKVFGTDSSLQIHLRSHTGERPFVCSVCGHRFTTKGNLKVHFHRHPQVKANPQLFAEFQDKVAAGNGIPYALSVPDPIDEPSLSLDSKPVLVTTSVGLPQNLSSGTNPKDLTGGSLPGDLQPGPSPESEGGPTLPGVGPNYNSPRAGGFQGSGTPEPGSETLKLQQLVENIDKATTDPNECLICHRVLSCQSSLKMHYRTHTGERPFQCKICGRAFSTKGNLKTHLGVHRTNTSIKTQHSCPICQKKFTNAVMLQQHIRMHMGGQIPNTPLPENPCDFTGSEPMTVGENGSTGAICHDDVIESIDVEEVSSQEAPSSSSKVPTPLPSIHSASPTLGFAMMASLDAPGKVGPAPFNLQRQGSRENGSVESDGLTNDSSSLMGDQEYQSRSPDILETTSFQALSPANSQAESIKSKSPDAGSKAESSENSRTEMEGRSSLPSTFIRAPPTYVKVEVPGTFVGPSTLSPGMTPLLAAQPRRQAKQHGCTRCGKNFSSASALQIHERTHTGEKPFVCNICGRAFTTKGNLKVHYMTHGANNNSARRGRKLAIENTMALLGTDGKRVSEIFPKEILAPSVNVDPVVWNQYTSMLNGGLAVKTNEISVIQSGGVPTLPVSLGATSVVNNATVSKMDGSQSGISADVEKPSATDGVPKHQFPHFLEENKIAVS
# T2 sequence (Q96SW2 whole entry): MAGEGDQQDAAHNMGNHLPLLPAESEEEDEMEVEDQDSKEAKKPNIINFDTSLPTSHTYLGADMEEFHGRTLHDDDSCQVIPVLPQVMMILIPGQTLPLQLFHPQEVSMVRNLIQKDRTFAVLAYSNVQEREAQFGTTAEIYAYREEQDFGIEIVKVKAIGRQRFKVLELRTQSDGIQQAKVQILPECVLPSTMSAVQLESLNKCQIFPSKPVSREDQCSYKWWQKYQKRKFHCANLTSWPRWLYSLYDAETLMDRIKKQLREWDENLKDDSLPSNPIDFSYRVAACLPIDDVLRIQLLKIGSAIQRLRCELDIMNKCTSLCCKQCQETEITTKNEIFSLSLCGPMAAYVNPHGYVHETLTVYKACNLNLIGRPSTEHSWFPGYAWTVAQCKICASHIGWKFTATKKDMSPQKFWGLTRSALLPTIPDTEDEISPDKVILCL
# T2 sequence (Q16531 2-1140 partner limits assumed): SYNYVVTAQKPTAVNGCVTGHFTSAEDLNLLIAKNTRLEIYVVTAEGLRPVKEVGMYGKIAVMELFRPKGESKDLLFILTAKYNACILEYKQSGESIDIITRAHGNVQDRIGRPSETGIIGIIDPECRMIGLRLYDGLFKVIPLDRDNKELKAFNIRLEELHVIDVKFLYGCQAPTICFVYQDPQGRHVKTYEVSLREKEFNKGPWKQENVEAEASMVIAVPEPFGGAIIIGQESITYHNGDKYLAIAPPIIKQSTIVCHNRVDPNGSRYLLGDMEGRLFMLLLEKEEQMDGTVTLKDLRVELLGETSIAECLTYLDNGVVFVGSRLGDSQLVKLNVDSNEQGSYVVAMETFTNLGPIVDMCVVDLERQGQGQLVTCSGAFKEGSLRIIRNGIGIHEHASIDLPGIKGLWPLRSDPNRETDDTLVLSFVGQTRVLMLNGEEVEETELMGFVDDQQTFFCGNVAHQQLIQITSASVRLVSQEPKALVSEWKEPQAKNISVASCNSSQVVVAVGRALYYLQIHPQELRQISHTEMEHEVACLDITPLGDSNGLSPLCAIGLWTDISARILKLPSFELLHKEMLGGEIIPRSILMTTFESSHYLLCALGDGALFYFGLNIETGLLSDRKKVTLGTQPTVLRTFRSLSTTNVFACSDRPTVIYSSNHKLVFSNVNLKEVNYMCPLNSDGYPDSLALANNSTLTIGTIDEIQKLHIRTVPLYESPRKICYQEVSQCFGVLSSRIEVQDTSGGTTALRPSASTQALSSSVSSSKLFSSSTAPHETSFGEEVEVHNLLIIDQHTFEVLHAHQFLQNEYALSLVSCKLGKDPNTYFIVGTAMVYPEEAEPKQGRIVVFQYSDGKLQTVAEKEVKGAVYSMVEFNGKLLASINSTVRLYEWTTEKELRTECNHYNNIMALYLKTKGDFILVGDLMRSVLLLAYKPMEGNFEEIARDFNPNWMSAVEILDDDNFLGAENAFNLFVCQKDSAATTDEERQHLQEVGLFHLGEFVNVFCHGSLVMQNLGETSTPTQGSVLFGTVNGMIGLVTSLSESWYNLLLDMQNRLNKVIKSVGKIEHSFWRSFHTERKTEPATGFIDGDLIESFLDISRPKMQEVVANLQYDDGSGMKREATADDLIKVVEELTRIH
# Description: Nano-Glo® HiBiT Lytic Assay System was purchased from Promega (Catalog No. N3050, Madison, WI, USA). […] The HiBiT polypeptide tag was introduced into the C-terminus of the endogenous SALL4 locus by CRISPR-Cas9 to produce the modified KELLY.2 cell line. The HiBiT polypeptide allows reconstitution of NanoBiT enzyme following cell lysis and addition of the complementing LgBiT polypeptide that activates substrate to produce a luminescent signal that is directly proportional to the amount of HiBiT-tagged SALL4.
# KELLY.2 cells were routinely sub-cultured to maintain cell density between 30-80% confluence, not to exceed 10 passages. Cells were washed with PBS, trypsinized for 5 minutes at 37° C., and resuspended in fresh growth media without phenol red. […] Cell concentration was adjusted with growth media without phenol red to 2×10^5 cells/mL.
# 30 nL DMSO was transferred to all control wells.
# 30 μL of media was dispensed to column 24 as background positive control (P). Plates were spun briefly at 1000 rpm and cells were incubated at 37° C., 5% CO2 for 6 hours. Final concentration of DMSO was 0.1% for all samples.
# Cellular SALL4 protein level was determined based on quantification of HiBiT using Nano-Glo® HiBiT Lytic Assay System (Promega). […] Cells treated in the absence of the test compound (0.1% DMSO vehicle) were the negative control (N) and wells containing only media were the positive control (P).
# Percent response of compound-treated samples (T) were calculated by normalizing to the DMSO treated negative (N) controls on the same microtiter plate after background (i.e., positive control) signal subtraction:
# Curve fit and DC50 (concentration that degrades 50% SALL4) determination was performed by 4 parametric logistic fit analysis using software such as GraphPad Prism software (GraphPad Software, LLC, San Diego, CA, USA). The fit was performed through minimization of the root mean squared error between observed and calculated values of the four-parameter logistic equation using the simplex optimizer of the Apache Commons Math library. […] DC50 values were computed as the concentrations where the fitted curves cross the 50% response level. Averages and standard deviations were computed from replicates of the experiment.
# [3] = Variable temperature XRPD (VT-XRPD) experiments; assay type: physicochemical
# Method: To investigate form conversion behavior, variable temperature XRPD experiments were conducted for hydrate Pattern A, hydrate Pattern C, hydrate Pattern F and hetero-solvate Pattern L.
# Based on DSC and TGA results, variable temperature XRPD was conducted for Pattern A, at different temperatures, including 25° C., 110° C. and 25° C.
# Based on DSC and TGA results, variable temperature XRPD was conducted for Pattern B, at different temperatures, including 25° C., 80° C., 130° C. and 25° C. The sample after heating-cooling was placed at 25° C./75% RH condition for 1 day and investigated by XRPD.
# Based on DSC and TGA results, variable temperature XRPD was conducted for Pattern C, at different temperatures, including 25° C., 110° C. and 25° C.
# Based on DSC and TGA results, variable temperature XRPD was conducted for Pattern F at different temperatures, including 25° C., 110° C. and 25° C. The sample after heating-cooling was placed at 25° C./75% RH condition for 1 day and investigated by XRPD.
# Based on DSC and TGA results, variable temperature XRPD was conducted for Pattern L, at different temperatures, including 25° C., 100° C., 140° C., 180° C. and 25° C. The sample after heating-cooling was placed at 25° C./92% RH condition for 24 h and investigated by XRPD.
# T1 sequence (Q13422 whole entry): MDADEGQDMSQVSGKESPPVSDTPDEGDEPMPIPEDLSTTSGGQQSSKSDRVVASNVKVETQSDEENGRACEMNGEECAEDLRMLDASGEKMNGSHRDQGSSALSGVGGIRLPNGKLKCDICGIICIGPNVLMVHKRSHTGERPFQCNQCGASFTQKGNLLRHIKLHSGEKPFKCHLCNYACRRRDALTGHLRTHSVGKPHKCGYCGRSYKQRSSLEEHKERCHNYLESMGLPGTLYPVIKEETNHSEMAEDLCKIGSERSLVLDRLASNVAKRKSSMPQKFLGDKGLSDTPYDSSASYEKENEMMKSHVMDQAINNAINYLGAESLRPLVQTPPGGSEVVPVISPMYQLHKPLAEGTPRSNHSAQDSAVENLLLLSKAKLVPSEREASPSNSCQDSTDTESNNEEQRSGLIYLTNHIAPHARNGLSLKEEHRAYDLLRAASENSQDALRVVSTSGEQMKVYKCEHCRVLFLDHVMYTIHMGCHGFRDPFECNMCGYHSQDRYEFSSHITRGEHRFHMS
# T1 sequence (Q96SW2 whole entry): as the sequence (Q96SW2 whole entry) above
# T1 sequence (Q16531 2-1140 partner limits assumed): as the sequence (Q16531 2-1140 partner limits assumed) above
SMILES,XRPD ([3]; 25° C. (start)),XRPD ([3]; Cool to 25° C.),XRPD ([3]; Heat to 110° C.),further results
"Nc1cccc2c1C(=O)N(C1CCC(=O)NC1=O)C2=O (stereo not drawn) [Pomalidomide, reference compound]",,,,"degradation of IKZF1 induced ([1]; positive control, 6 hours): 8000; Emax ([1]; read-out: Mean Emax (%) ± SD): 20.8 ± 3.2%; Emax [2]: 9.5 ± 1.5%"
COc1cc(-c2cn(C)c(=O)c(C)c2C)cc(OC)c1CN1CC[C@H](N2CCN(c3ccc(N[C@H]4CCC(=O)NC4=O)cc3F)CC2)C(F)(F)C1 [Pattern F],Pattern F,Pattern H,Pattern H,
COc1cc(-c2cn(C)c(=O)c(C)c2C)cc(OC)c1CN1CC[C@H](N2CCN(c3ccc(N[C@H]4CCC(=O)NC4=O)cc3F)CC2)C(F)(F)C1 [Pattern C],Pattern C,Metastable Pattern I,Metastable Pattern I,XRPD ([3]; 25° C./50% RH hold 2 h): Pattern C
COc1cc(-c2cn(C)c(=O)c(C)c2C)cc(OC)c1CN1CC[C@H](N2CCN(c3ccc(N[C@H]4CCC(=O)NC4=O)cc3F)CC2)C(F)(F)C1 [Pattern L],Pattern L,Pattern M,,XRPD ([3]; 25° C./92.5% RH hold 1 day): Pattern M; XRPD ([3]; Heat to 100° C.): Pattern L
COc1cc(-c2cn(C)c(=O)c(C)c2C)cc(OC)c1CN1CC[C@H](N2CCN(c3ccc(N[C@H]4CCC(=O)NC4=O)cc3F)CC2)C(F)(F)C1 [Pattern B],Pattern B,,,
